Test results: paper PMC5107132 (European journal of pharmacology, 2016)
Marks after values point to notes of the source that are not given here.

Tested on: Wistar rats
Assay: Rotarod test
Assay type: in vivo, rat
Conditions: 15 mg/kg MP-III-022 in combination with 15 mg/kg flumazenil (FLU), i.p.

SMILES: C#Cc1ccc2c(c1)C(c1ccccc1F)=N[C@H](C)c1c(C(=O)NC)ncn1-2 [MP-III-022, (R)-8-Ethynyl-6-(2-fluorophenyl)-N,4-dimethyl-4H-benzo[f]imidazo[1,5-a][1,4]diazepine-3-carboxamide]
- Rotarod, time remaining on the rod revolving at 15 rpm: 175.17 ± 4.83^a,d s
